Laboratory results: patent publication US6780839B2, “Use of secretin-receptor ligands in treatment of cystic fibrosis (CF) and chronic obstructive pulmonary disease (COPD)” (Pharmagene Laboratories Ltd., priority 2000, dated 2004)

Assays:
[1] = tested on: human tertiary bronchus from non-CF donors; test: Short circuit current across the bronchial wall, modified Ussing chamber; type: cell-based
From the text: In brief, non-branching regions of the human tertiary bronchus from non-CF donors were dissected, cut longitudinally and mounted in between the two compartments of a modified Ussing chamber to measure the short circuit current across the bronchial wall. Both luminal (airway) and basolateral membranes were bathed in oxygenated Krebs extracellular solution and the tissue voltage clamped to zero to allow changes in short circuit current in response to secretin to be measured. Amiloride at a concentration of 10 μM was initially added to the luminal membrane (FIG. 5, point a)(as described by those in the art) to partially block the predominant sodium ion current and unmask underlying ionic currents. On attainment of a stable base line, 3 μM human secretin (supplied by Sigma, catalogue number S714) was added to the luminal membrane (FIG. 5, point b).

[2] = tested on: human CF tertiary bronchus; test: Short circuit current in CF bronchus, modified Ussing chamber; type: cell-based
Method: The experiment described above was repeated using human CF tertiary bronchus, using 1 μM secretin.

[3] = tested on: primary human tertiary bronchial epithelial cells; test: Cl- efflux by MQAE fluorescence; type: cell-based; settings: FIG. 8
Method: Molecular Probes). In brief, primary human, tertiary bronchial epithelial cells were isolated as previously described and cultured in a 96 well plate. On reaching confluency, cells were loaded overnight with 4 mM MQAE. Cells were washed in a chloride containing HEPES buffer, before passive Cl^− efflux was initiated by the addition of a Cl^− free buffer. […] 100 nM Secretin mediated Cl^− efflux was inhibited by the non-selective Cl^− blocker NPPB (open circles).

[4] = tested on: primary human tertiary bronchial epithelial cells derived from non-CF donors; test: Short circuit current in confluent tertiary bronchial epithelial cell monolayers, modified Ussing chamber; type: cell-based
From the text: Functional effects of the secretin receptor were probed in epithelial cells derived from the human tertiary bronchus. In brief, tertiary bronchial epithelial were isolated by overnight protease digestion and then cultured until confluency on Snapwell (Costar) permeable supports. The supports were mounted in a modified Ussing chamber, and both luminal and basolateral membranes were bathed in oxygenated Krebs extracellular solution. The cells were voltage clamped to zero to allow changes in short circuit current Isc in response to secretin to be measured. As previously described, 10 μM amiloride was initially added to the luminal membrane (FIG. 6, point a)followed by the addition of 100 μM secretin to the luminal membrane (FIG. 6, point b). A time matched, amiloride-treated control is denoted by the thin trace.

rat cholangiocytes = settings: by translocation of AQP-1 water channels; cited from earlier work
rats = settings: injected intracerebroventricularly; cited from earlier work
[5] = 10 μM ATP or UTP on apical membrane, FIG. 5 point c

## Nc1ncnc2c1ncn2[C@@H]1O[C@H](COP(=O)(O)OP(=O)(O)OP(=O)(O)O)[C@@H](O)[C@H]1O [ATP]
[1]; [5]
  ionic movement (short circuit current): stimulate a similar ionic movement of similar magnitude

## O=c1ccn([C@@H]2O[C@H](COP(=O)(O)OP(=O)(O)OP(=O)(O)O)[C@@H](O)[C@H]2O)c(=O)[nH]1 [UTP]
[1]; [5]
  ionic movement (short circuit current): stimulate a similar ionic movement of similar magnitude

## N=C(N)NC(=O)c1nc(Cl)c(N)nc1N [amiloride]
[2]; amiloride, FIG. 7 point a
  effect on underlying sodium current: blocks the underlying sodium current

## O=C(O)c1cc([N+](=O)[O-])ccc1NCCCc1ccccc1 [NPPB, 5-nitro-2-(3-phenylpropyl-amino)benzoic acid]
[3]; 100 μM NPPB with 100 nM secretin
  effect on secretin mediated changes in MQAE fluorescence (Cl- efflux): abolished

## COc1ccc(Cl)cc1C(=O)NCCc1ccc(S(=O)(=O)NC(=O)NC2CCCCC2)cc1 [glibenclamide]
[4]; 500 μM glibenclamide (CFTR inhibitor)
  suppression of secretin mediated ionic movement: failed to suppress secretin mediated ionic movement

## secretin
[4]; 100 μM secretin on luminal membrane after 10 μM amiloride, FIG. 6
  ionic movement (short circuit current Isc): stimulated ionic movement in a manner consistent with the movement of a negatively charged ion
[1]; 3 μM human secretin on luminal membrane after 10 μM amiloride, FIG. 5
  ionic movement (short circuit current): stimulate ionic movement in a manner consistent with the movement of a negatively charged ion
[3]; nanomolar concentrations of secretin (12.5 nM, 100 nM), Cl- free buffer
  Cl- efflux (changes in MQAE fluorescence): stimulated Cl^− efflux
Rat cholangiocytes
  concentration dependent increase in osmotic H2O permeability: 60%
[2]; 1 μM secretin after amiloride, FIG. 7 point b
  ionic movement (short circuit current): stimulates ionic movement of a negatively charged ion
rats
  defecation: significantly increased defecation
  novel-object approaches: decreased novel-object approaches
  stereotypic behaviour: no significant effects on stereotypic behaviour
